Test results taken from PubChem BioAssay AID1645866 (Buhrlage Lab, Dana-Farber Cancer Institute and Novartis …, 2021).
Calls of active or inactive are those of the source.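 Rule for the calls: active = in confirmatory dose-response testing, peak deubiquitinase inhibition of 30% or more; inactive = the rest.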

Target: Ubiquitin carboxyl-terminal hydrolase 28 (Homo sapiens) (UniProt Q96RU2)
Assay: Ubiquitin-specific peptidase 28 DUB inhibitors, biochemical concentration-dependence assay, validation of primary screening hits (AID 1645866)
Details: purified USP28, ubiquitin-rhodamine fluorescence, 30 min

Ubiquitin carboxyl-terminal hydrolase 28 (Homo sapiens), sequence (Q96RU2 whole entry, looked up): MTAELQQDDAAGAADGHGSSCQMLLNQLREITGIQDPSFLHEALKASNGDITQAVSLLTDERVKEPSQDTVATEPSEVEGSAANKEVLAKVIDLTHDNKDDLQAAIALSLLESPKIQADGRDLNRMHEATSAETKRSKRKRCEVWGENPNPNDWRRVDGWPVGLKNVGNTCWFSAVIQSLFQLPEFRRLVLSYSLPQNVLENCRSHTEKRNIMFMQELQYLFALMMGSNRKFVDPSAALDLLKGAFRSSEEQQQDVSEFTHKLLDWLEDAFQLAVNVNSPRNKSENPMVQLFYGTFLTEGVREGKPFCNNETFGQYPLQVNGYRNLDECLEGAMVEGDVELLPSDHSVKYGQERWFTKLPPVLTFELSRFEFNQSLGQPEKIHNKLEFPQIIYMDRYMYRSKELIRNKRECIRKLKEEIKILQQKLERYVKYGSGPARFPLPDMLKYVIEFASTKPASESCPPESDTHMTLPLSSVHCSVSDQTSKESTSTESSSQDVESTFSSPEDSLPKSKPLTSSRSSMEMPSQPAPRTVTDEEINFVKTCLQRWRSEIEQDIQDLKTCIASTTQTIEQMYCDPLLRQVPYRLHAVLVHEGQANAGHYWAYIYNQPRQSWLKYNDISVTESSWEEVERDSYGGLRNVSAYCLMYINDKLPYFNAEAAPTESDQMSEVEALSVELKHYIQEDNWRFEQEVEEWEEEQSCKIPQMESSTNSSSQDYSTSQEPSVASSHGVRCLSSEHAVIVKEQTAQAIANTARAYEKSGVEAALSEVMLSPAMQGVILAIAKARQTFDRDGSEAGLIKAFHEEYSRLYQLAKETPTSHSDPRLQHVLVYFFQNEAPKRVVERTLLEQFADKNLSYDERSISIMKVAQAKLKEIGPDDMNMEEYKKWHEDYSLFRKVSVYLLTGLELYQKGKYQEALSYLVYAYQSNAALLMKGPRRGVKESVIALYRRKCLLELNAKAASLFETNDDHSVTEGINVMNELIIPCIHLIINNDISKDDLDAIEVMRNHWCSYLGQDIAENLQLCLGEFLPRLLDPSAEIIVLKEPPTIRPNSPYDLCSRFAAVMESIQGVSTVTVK

Row | SMILES | IC50
1 | COc1cccc(NC(=O)Cc2sc(Nc3cc(C)cc(C)c3)nc2O)c1 | 18.1 µM
2 | O=C(NCCCN1CCc2ccccc2C1)c1cc2c(s1)CS(=O)(=O)C2 | > 50 µM (inactive)
3 | CN(C)CCc1cc2c(c3c1ccc1ccccc13)OCO2 | 4.59 µM
4 | Cc1cc(C#N)c2c(C)ccc(C(C)C)cc1-2 | 21.4 µM
5 | Cc1cc(C)c(O)c(-c2cc(C(=O)Nc3ccccc3Cl)[nH]n2)c1 | 3.54 µM
6 | CC(OC(=O)CNC(=O)c1ccc(Br)cc1)C(=O)Nc1ccc2c(c1)OCCO2 (configuration not stated) | 25.8 µM
7 | CSc1ccccc1C(=O)Nc1sc2c(c1C(N)=O)CCC(C)C2 (configuration not stated) | 2.78 µM
8 | CC(C)OC(=O)c1cc2c(ccn2-c2ccc(F)cc2)n1CC(=O)NC1CCCCC1 | 27.5 µM
9 | Cc1nc2ccccc2nc1SCC(=O)Nc1ccc2c(c1)OCO2 | 25.1 µM
10 | c1cnc(-c2n[nH]c(C3CCN(C4CCNC4)CC3)n2)cn1 (configuration not stated) | > 50 µM (inactive)
11 | COc1ccccc1Nc1ncc(C(=O)NCCc2ccc(Cl)cc2)c2ccccc12 | 4.31 µM
12 | Cc1ccc2[nH]c(=O)c(CN(CC3CCCO3)S(=O)(=O)c3ccccc3)cc2c1 (configuration not stated) | 24.7 µM
13 | CC1CCc2c(sc3ncnc(OCc4cccc([N+](=O)[O-])c4)c23)C1 (configuration not stated) | < 0.05 µM
14 | O=c1c2ccccc2ncn1C1CCN(S(=O)(=O)c2ccccc2F)CC1 | 30.6 µM
15 | Cc1ccc(Cn2nnc(-c3ccccc3Cl)n2)cc1 | 13.9 µM
16 | O=C(CCCn1c(=O)c2ccccc2n(CC(=O)NCc2ccccc2Cl)c1=O)NCc1ccc2c(c1)OCO2 | 1.94 µM
17 | CCN1C(SCc2ccc(F)cc2)=NS(=O)(=O)c2ccccc21 | 26.7 µM
18 | CC(C)(C)C(=O)C1C2C(=O)N(Cc3ccccc3)C(=O)C2C2c3ccccc3C=CN12 (configuration not stated) | > 50 µM (inactive)
19 | COCCCn1c(C(=O)Nc2ccccc2OC)cc2c(=O)n3ccccc3nc21 | 29.9 µM
20 | CC(C)(C)C(=O)Nc1ccc(C(=O)Nc2cccc(-c3nnc(-c4ccccc4)o3)c2)cc1 | 4.78 µM
21 | COc1ccc(NC(=O)CN2C(=O)c3ccccc3Sc3ccc(C(=O)N4CCCC4)cc32)cc1OC | 34.2 µM
22 | CC(=O)Nc1ccc(S(=O)(=O)NCc2ccc(C(=O)NCc3ccc(C)cc3)cc2)cc1 | 19.2 µM
23 | C[C@]12C(=O)N(c3ccc(C(=O)NCc4ccc(F)cc4)cc3)C(=O)N1CCc1c2[nH]c2ccccc12 | 40.6 µM
24 | Cc1ccccc1Cn1ccc(NC(=O)c2noc(C)c2[N+](=O)[O-])n1 | 6.9 µM
25 | O=S1(=O)CCN(CC2CCCO2)c2c(Oc3ccccc3)nc(F)c(Cl)c21 (configuration not stated) | > 50 µM (inactive)
26 | COc1ccccc1NC(=O)c1nn(-c2cccc(F)c2)c(OC)cc1=O | 25.1 µM

Row | SMILES | IC50
27 | Cc1cccc(O)c1-c1nc2c(-c3nc4c(C(=O)O)cccc4o3)cccc2o1 | > 50 µM (inactive)
28 | COc1ccc(CCNc2c(-c3ccccc3O)nc3cnccn23)cc1OC | > 50 µM (inactive)
29 | Cc1cc(C)c2cc3c(nc2c1)OC(=O)N(Cc1ccco1)C3 | 9.77 µM
30 | Cc1c(C)n(-c2ccccc2)c2ncn(CC(=O)NC(C)c3ccccc3)c(=O)c12 (configuration not stated) | 16.7 µM
31 | CN(C)c1ccc(/C=N/NC(=O)c2ccc(Cl)cc2)cc1 | 16.7 µM
32 | COc1ccc2[nH]cc(S(=O)(=O)c3ccc(C)c(F)c3)c(=O)c2c1 | 24.1 µM
33 | CC1=C2C(=NCCN1)C(=O)N(c1ccccc1)C2c1cccnc1 (configuration not stated) | > 50 µM (inactive)
34 | Cn1c(CCNC(=O)c2[nH]nc3c2CCc2ccccc2-3)nc2ccccc21 | 23.7 µM
35 | Cc1ccc(CN2CCCn3nc(C(=O)NCc4ccccc4C)cc3C2=O)cc1 | 45.2 µM
36 | Cc1nc(-c2ccc(C(=O)NCc3ccc(F)cc3)cc2)cs1 | 36.7 µM
37 | O=C(Nc1ccc(NS(=O)(=O)c2ccc3c4c(cccc24)CC3)cc1)c1ccccc1 | 37.7 µM
38 | O=S(=O)(Nc1ccc(O)cc1)c1ccc2oc3ccc(S(=O)(=O)Nc4ccc(O)cc4)cc3c2c1 | 22.3 µM
39 | Cc1cc(=O)n(C)c2c(O)c3c(cc12)c(C)cc(=O)n3C | 43.9 µM
40 | Cc1cc(-c2ccnc3c(C#N)cnn23)c(C)s1 | 28.3 µM
41 | O=c1[nH]c(C2CCN(S(=O)(=O)c3ccc(S(=O)(=O)NC4CCCCC4)cc3)CC2)nc2c1nnn2Cc1c(Cl)cccc1Cl | 8.62 µM
42 | Nc1nc(OCc2ccccc2)c2[nH]c(/C=C/c3cccs3)nc2n1 | 24.9 µM
43 | O=C(COC(=O)C1CCCN1C(=O)C12CC3CC(CC(C3)C1)C2)c1ccc(Cl)cc1 (configuration not stated) | > 50 µM (inactive)
44 | CC1OC2CC(O)C1(O)C1=C2C(=O)c2c(O)c3c(c(O)c2C1=O)[C@H](C)O[C@H]1CC(=O)O[C@@H]31 (some centres not stated) | > 50 µM (inactive)
45 | COc1ccc(CCn2cnc3c4ccccc4n(C)c3c2=O)cc1OC | 8.44 µM
46 | Cc1ccc(Cl)c(-n2nnc(C(=O)Nc3ccccc3C#N)c2C)c1 | 12 µM
47 | Cc1nc(Nc2c3ccccc3nc3ccccc23)sc1C | > 50 µM (inactive)
48 | O=C(/C=C/c1ccco1)c1cccc([N+](=O)[O-])c1 | 21.9 µM
49 | COc1ccc(COC(=O)C2=C(C)NC(=O)CC2c2cccc([N+](=O)[O-])c2)cc1 (configuration not stated) | 3.06 µM
50 | Cc1nc(-c2ccc3c(c2)nnn3CCN2CCOCC2)no1 | > 50 µM (inactive)
51 | CC(C)(C)C(=O)NC(c1ccccc1)c1nnc(N2CCOCC2)o1 (configuration not stated) | > 50 µM (inactive)
52 | COc1ccc(C2SCC(=O)Nc3c2c(=O)[nH]n3C2CCCCCC2)cc1 (configuration not stated) | 25.7 µM

Row | SMILES | IC50
53 | COc1ccc(-c2cc3nc(C)cc(Nc4ccc(F)cc4)n3n2)cc1OC | > 50 µM (inactive)
54 | CC(=O)c1cc2c(=O)c3c(C(=O)O)c(O)c(O)cc3oc2c(C(C)=O)c1-c1coc2cc(O)c(O)c(C(=O)O)c2c1=O | 1.77 µM
55 | O=C(CSc1nnc(Cn2cnc3ccccc32)o1)Nc1ccc([N+](=O)[O-])cc1 | 20.3 µM
56 | COc1cccc(-n2c(CNCc3cccnc3)nc3ccc([N+](=O)[O-])cc3c2=O)c1 | 20.2 µM
57 | CN(C)c1ccc(CCN2CCc3nc4cccnc4cc3C2)cc1 | > 50 µM (inactive)
58 | COc1cc(O)c2c(=O)c(-c3ccc(O)cc3)coc2c1 | 36.1 µM
59 | O=C(Cc1nnc2c(-c3nc(C4CC4)no3)cccn12)Nc1ccccc1 | 16.5 µM
60 | Cc1sc2ccn(C)c(=O)c2c1C(=O)NC1CCCC1 | 4.28 µM
61 | CC1Oc2cc3c(-c4c(O)cc(O)c5c(O)c6c(cc45)OC(C)C(C)C6=O)c(O)cc(O)c3c(O)c2C(=O)C1C (configuration not stated) | 2.18 µM
62 | Cc1c(-c2nc(-c3ccccc3Cl)no2)nnn1-c1cccc(F)c1 | 14.2 µM
63 | Cc1cccc(NC(=O)CSc2nnc(-c3n[nH]c4c3CCC4)n2N)c1 | 26.6 µM
64 | CC(=O)Nc1ccc(S(=O)(=O)N2CCCC(C(=O)Nc3cccc4ccccc34)C2)cc1 (configuration not stated) | 19.1 µM
65 | CCOC(=O)N1CCN(S(=O)(=O)c2ccc(C(=O)Nc3ccc(Br)cc3)cc2)CC1 | 18.3 µM
66 | O=C(COc1ccc2c(c1)CCC2)Nc1ccc2c(c1)CCC2 | 37.7 µM
67 | COc1ccccc1-c1nc2c3c(ncn2n1)Oc1c(c(C)nn1-c1ccccc1)C3c1cccnc1 (configuration not stated) | 40.9 µM
68 | O=C(Nc1ccc2c(c1)OCCO2)c1cccc2nc3ccccc3nc12 | 1.99 µM
69 | CSc1ccc(CNC(=O)CC2CCN(S(=O)(=O)c3ccc(C)cc3)CC2)cc1 | 16.3 µM
70 | O=C(COc1ccccc1-c1nnc(-c2ccccc2)o1)Nc1ccc(F)cc1F | 3.36 µM
71 | c1ccc2c(c1)ccc1nnc(-c3ccc4c(c3)OCO4)n12 | > 50 µM (inactive)
72 | Cc1nc(NCc2ccccn2)c2cc(-c3ccccc3)sc2n1 | 23.7 µM
73 | COc1ccc(Cl)c(NC(=O)C2CC(=O)Nc3cc(-c4ccccc4)nn32)c1 (configuration not stated) | 17.3 µM
74 | CN(C(=O)c1cccc2cccnc12)c1nc2c(s1)CCc1occc1-2 | 26.9 µM
75 | CCc1ccc(C(C)NC(=O)C2CCN(c3ccc4nncn4n3)CC2)cc1 (configuration not stated) | 16.4 µM
76 | COc1ccc(OC)c(CCNC(=O)CCC2=NS(=O)(=O)c3ccc(C(F)(F)F)cc3N2)c1 | 23.6 µM
77 | Cc1ccc(CNC(=O)CCCn2c(=O)c3sccc3n(CC(=O)Nc3cc(Cl)ccc3C)c2=O)cc1 | 2.87 µM
78 | COc1ccc(CC(=O)Nc2ccc3nc(N4CCOCC4)cc(C)c3c2)cc1 | 26 µM

Row | SMILES | IC50
79 | Cn1nccc1C(=O)N1CCCCC1c1ncc(Cc2ccc(Cl)cc2)o1 (configuration not stated) | > 50 µM (inactive)
80 | COc1cccc(-n2nnc(C(=O)Nc3ccc(C)c(C)c3)c2C)c1 | 8.7 µM
81 | O=C(Nc1cccc(Br)c1)c1cc(-c2cccnc2)n[nH]1 | 2.15 µM
82 | CCOC(=O)c1cc2c(ccn2C)n1CC(=O)N1CCc2ccccc2C1 | > 50 µM (inactive)
83 | Cc1ccc(Cn2c(=O)c3ccccc3n3c(CCC(=O)N4CCN(c5ccccn5)CC4)nnc23)cc1 | 5.55 µM
84 | Cc1cccc(CNC(=O)C2CCCN(S(=O)(=O)Cc3ccc(F)cc3)C2)c1 (configuration not stated) | 26.6 µM
85 | Cn1c(=O)cc(SCC(=O)NC2CCN(Cc3ccccc3)CC2)c2ccc(Cl)cc21 | 31.6 µM
86 | CCC(C)c1ccc(-c2csc(Cn3c(CN4CCN(C)CC4)nc4ccccc4c3=O)n2)cc1 (configuration not stated) | 15.3 µM
87 | CSc1ncccc1C(=O)NC1(O)C(=O)c2ccccc2C1=O | 29 µM
88 | COc1ccc(-c2[nH]c3ccccc3c2SCCNC(=O)c2ccc(S(=O)(=O)N3CCOCC3)cc2)cc1 | 30 µM
89 | O=C(Nc1ccc2c(c1)OCCO2)c1cc(CN2CCOCC2)on1 | 11.9 µM
90 | COCCCNC(=O)c1ccc(Cn2c(=O)c3ccccc3n(CC(=O)NC3CCCCC3)c2=O)cc1 | 23.5 µM
91 | CCOC(=O)c1cnn(-c2ccc(C(=O)Nc3ccc(C)c(Cl)c3)cc2)c1N | 5.47 µM
92 | Cc1c(C)c2ccc(OCC(=O)NCc3ccncc3)c(C)c2oc1=O | 49.2 µM
93 | CC1OC2CC(O)C1(O)C1=C2C(O)=C(C(N)=O)C(=N)C1=O (configuration not stated) | 12.3 µM
94 | Cc1cc(C(=O)N2CCN(C3CCN(Cc4ccc(Cl)o4)CC3)C(=O)C2)c(C)o1 | > 50 µM (inactive)
95 | O=C(Cn1c(=O)nc(-c2ccccc2)c2ccccc21)NCc1ccc2c(c1)OCO2 | 27.9 µM
96 | O=C(CSc1cn(Cc2ccccc2)c2ccccc12)Nc1ccc2c(c1)OCCO2 | 17.2 µM
97 | CCOc1ccccc1C(=O)NCC(=O)OC(C(=O)c1c[nH]c2ccccc12)c1ccccc1 (configuration not stated) | > 50 µM (inactive)
98 | O=C1c2c(O)c(Cl)cc3c2[C@@]2(Oc4cc(Cl)c(O)c5c4[C@]3(O2)[C@@H]2O[C@@H]2C5=O)[C@@H]2O[C@H]12 | 0.495 µM
99 | CCc1ccccc1NC(=O)COc1ccccc1-c1nnc(-c2ccccc2)o1 | 23.5 µM
100 | Cc1sc(NC(=O)CN2CCc3ccccc3C2)nc1-c1ccc2c(c1)CCN2C(=O)C1CCCCC1 | > 50 µM (inactive)
101 | Cc1cccc(-n2cnc(C(=O)NCc3ccc(F)cc3)c2)n1 | 35.6 µM
102 | CCOc1ccc(NS(=O)(=O)c2ccc(NC(=O)Nc3ccccc3)cc2)cc1 | 16 µM
